These results are taken from US9359341B2, “Aldehyde derivative of substitute oxazolidinones” (WANBURY LTD., priority 2012, dated 2016).

Data set [1] in a line: Stability in simulating intestinal fluid (SIF). The format is physicochemical. Particulars: over 120 min. The procedure: On completion of incubation period, the solution is centrifuged and supernatant is taken. To the supernatant, ice cold acetonitrile containing IS is added, vortexed and injected into LCMS/MS.
API 4000, ESI Agilent 1100 column: Gemini Nx 100 mm×4.6 mm 5.μ; column temperature: 30° C.; eluent A: 0.1% formic acid in water, eluent B: acetonitrile; gradient: 0-2.5 min 95% A, 5% B; 2.5-2.6 min 5% A, 95% B; 2.6-4.2 min 95% A, 5% B; flow rate: 0.8 ml/min; ESI. Q1:464.098, Q3:144.255
Prepared 0.1 mol of citric acid and 0.2 mol of di sodium hydrogen phosphate in water. Buffer pH 2.2, 4 and 7.8 are prepared using citric acid and disodium hydrogen phosphate by adjusting the pH with 0.1N HCl or 1N NaOHpH 7.4: 8.89 g disodium hydrogen phosphate (Solution A) add to 1 liter of water, 1.5601 g sodium di-hydrogen phosphate (solution B) are made up to 1 liter with water; Solution A (19 ml) and Solution B (81 ml) are mixed. SIF/SGF: 2.38 g of SIF original powder (biorelavant media) is dissolved in 1 L of milliQ water. The pH of the solution is adjusted for SIF (7.4) and SGF (2.2) with 0.1N HCl. The ratios of the peak areas (F) at the respective time points in relation to the peak areas at the starting time are calculated
The peak area (F) is directly correlated to the amount of test compound which is quantified by the LC MS method. […]

The nature of data set [2]: In vitro stability in mouse plasma. The format is in vitro ADME. Particulars: conversion to rivaroxaban seen from zero min. The procedure:
The final concentration of the test compound in the assay is 5 micromolar. […] C. The 100 microliters of aliquot at time point was removed and diluted with ice cold acetonitrile containing IS (200.mu·L) to stop the reactions. Samples are centrifuged at 10,000 RPM for 5 minutes to precipitate proteins. Supernatants are transferred to micro centrifuge tubes and stored at −20° C. for analysis of LC/MS/MS. The percent parent remaining of the test substance is calculated as ratio of peak area at each time point to peak area ratio at zero min, multiplied by 100.
API 4000, ESI Agilent 1100 column: Gemini Nx 100 mm×4.6 mm 5.1; column temperature: 30° C.; eluent A: 0.1% formic acid in water, eluent B: acetonitrile; gradient: 0-2.5 min 95% A, 5% B; 2.5-2.6 min 5% A, 95% B; 2.6-4.2 min 95% A, 5% B; flow rate: 0.8 ml/min; ESI. Q1:464.098, Q3:144.255

The target in the next data set is CYP1A2 (Homo sapiens (Human), UniProt P05177). As to the kind of experiment: CYP inhibition assay. The settings on record: pooled human liver microsomes; extrapolated IC50 derived from 3 μM; read-out: IC50 (μM) of CYP isoforms, 1A2. It counts as in vitro ADME. The procedure:
(§1) The ability of substances to inhibit CYP1A2, CYP2C9, CYP2D6, CYP2C19, CYP2J2 and CYP3A4 in humans was investigated with pooled human liver microsomes as enzyme source in the presence of standard substrates (see below) which form CYP-isoform-specific metabolites.
(§2) Standard incubation mixtures comprise NADPH and substrates in 100 mM phosphate buffer (pH 7.4) in a total volume of 200 μl. Test compound are dissolved in acetonitrile. Incubated with pooled human liver microsomes at 37° C. for a defined time. The reactions are stopped by adding 100 μl of acetonitrile in which a suitable internal standard is always present. Precipitated proteins are removed by centrifugation, and the supernatants analyzed by LC-MS/MS.

Another data set concerns the target CYP3A4 (Homo sapiens (Human), UniProt P08684). Put plainly: CYP inhibition assay. It counts as in vitro ADME. Particulars: pooled human liver microsomes; extrapolated IC50 derived from 3 μM; read-out: IC50 (μM) of CYP isoforms, 3A4. The procedure: as §1, §2

Sequence of CYP3A4 (P08684 whole entry, canonical isoform): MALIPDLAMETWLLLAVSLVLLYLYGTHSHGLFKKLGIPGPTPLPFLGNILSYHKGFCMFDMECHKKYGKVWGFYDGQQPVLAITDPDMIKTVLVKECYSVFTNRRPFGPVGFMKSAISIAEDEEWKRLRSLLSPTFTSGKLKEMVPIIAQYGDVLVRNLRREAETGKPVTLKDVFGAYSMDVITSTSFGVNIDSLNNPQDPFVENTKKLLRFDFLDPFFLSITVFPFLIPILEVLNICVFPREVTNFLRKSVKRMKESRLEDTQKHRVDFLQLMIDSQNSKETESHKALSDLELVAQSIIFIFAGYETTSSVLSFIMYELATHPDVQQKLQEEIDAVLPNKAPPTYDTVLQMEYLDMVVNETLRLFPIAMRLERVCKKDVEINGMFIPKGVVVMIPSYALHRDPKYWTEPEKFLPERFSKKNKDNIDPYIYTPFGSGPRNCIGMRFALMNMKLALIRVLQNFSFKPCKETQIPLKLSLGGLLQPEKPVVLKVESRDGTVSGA
Sequence of CYP1A2 (P05177 whole entry, canonical isoform): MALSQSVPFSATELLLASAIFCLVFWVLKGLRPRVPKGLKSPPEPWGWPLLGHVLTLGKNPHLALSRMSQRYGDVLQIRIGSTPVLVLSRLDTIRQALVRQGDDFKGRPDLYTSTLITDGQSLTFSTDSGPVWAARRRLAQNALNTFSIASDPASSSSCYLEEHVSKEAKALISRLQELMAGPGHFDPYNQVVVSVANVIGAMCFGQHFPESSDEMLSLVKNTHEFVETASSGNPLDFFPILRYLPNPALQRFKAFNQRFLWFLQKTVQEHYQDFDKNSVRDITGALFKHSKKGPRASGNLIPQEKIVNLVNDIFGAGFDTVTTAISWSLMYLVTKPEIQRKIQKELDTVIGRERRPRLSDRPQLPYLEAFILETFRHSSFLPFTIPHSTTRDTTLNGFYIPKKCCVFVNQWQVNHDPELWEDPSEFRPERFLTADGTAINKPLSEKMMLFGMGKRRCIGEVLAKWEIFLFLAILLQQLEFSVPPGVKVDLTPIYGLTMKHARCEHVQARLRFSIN

As to `O=CN(C[C@H]1CN(c2ccc(N3CCOCC3=O)cc2)C(=O)O1)C(=O)c1ccc(Cl)s1` [Compound formula B, 5-chloro-N-formyl-N-({(5S)-2-oxo-3-[4-(3-oxomorpholin-4-yl)phenyl]-1,3-oxazolidin-5-yl}methyl)thiophene-2-carboxamide], the “stability at simulating intestinal conditions” value in data set [1] is “stable at simulating intestinal conditions”. Also, in data set [2], the “Conversion: amount of test product detected” value was “min. Neglible”. Moreover, the IC50 on CYP1A2 was 1.4 µM; at CYP3A4, 5.7 µM.
